Where two headings read alike, the source gives them in different places. Marks after values point to notes of the source that are not given here.
Experiments:
[1] = Pharmacokinetic study after oral administration; type: in vivo, cynomolgus monkeys; conditions: cynomolgus monkeys, oral, 10 mg/kg
Text: Studies were undertaken to compare the pharmacokinetics (PK) of the glutaric acid co-crystal to the PK of the tosylate salt of the Formula I compound. A 3% solution of Blanose 7LF PM without preservatives was used to formulate the glutaric acid co-crystal and tosylate salt. Results from a pharmacokinetic study in cynomolgus monkeys indicate that the plasma concentration of the glutaric acid co-crystal was greater than the corresponding tosylate salt following oral administration of each compound.
In this study, each compound was administered orally at a dose of 10 mg/kg to cynomolgus monkeys. Following administration, blood was obtained from each test subject at 0 min, 60 min, 120 min and 180 minutes. After separating the plasma from whole blood an aliquot to each plasma sample was denature by the addition of 70% ethanol. The denatured protein was pelleted by centrifugation and the supernatant was collected and dried using a stream of dry nitrogen gas. The pellet thus obtained was re-constituted in water containing 0.1% formic acid and the re-constituted mixture was analyzed by UPLC using a HSS-T3 (high strength silica) column or an YMC TriartC-18 column. Gradient elution using a mixture of water containing 0.1% HCOOH (mobile phase-A) and acetonitrile containing 0.1% HCOOH (mobile phase-B) was employed for analysis of the pharmacokinetic (PK) samples.

[2] = Solid state stability by UPLC; type: physicochemical; conditions: solid
Protocol: Solid state stability studies were performed by storing a test sample of the co-crystal at different temperatures and under conditions of different relative humidity for a period of one to three months. Stability was judged by Ultra performance liquid chromatography (UPLC) analysis of the test co-crystals. Percent degradation of API in a test sample of the co-crystal was calculated as follows: Co-crystals in accordance with the invention are fairly stable across the temperature range used in the study. […] Without ascribing to a particular theory, crystallinity may contribute to the stability of inventive co-crystals. Table 7 illustrates data from a stability of a Formula I glutaric acid co-crystal in accordance with the invention across a range of temperatures and in the presence of 75% relative humidity at 40° C. […] Further supporting the hypothesis that crystallinity contributes to increased stability was provided by comparing the amorphous form of the free base of a Formula I compound to the crystalline form of a Formula I compound as illustrated in Table 8.

[3] = Solubility and solution stability in buffers by UPLC; type: physicochemical; conditions: thermodynamic from solid, read-out: solubility: free-base form of the Formula I compound present per milliliter of buffer solution
Text: Studies have shown that the co-crystals were soluble in water and buffered solvents.
Unlike the tosylate salt, no genotoxic by-products are formed in solutions of the inventive co-crystals.

[4] = system: HBV; experiment: microbe, parasite or virus in culture; conditions: cultured HepaRG cells
Protocol: Direct inhibition of viral replication was evaluated by monitoring the levels of secreted HBV DNA and the levels of HBV surface antigen (HBsAg) in cultures containing HBV infected HepaRG cells.
After three days incubation, the combined medium was replaced with differentiation medium and the cells were maintained in the differentiation medium for an additional 2 to 4 weeks. The differentiation medium was renewed every 2 to 3 days throughout the incubation period. Differentiated HepaRG cells (HepaRGd) display hepatocyte-like cell islands surrounded by monolayer of biliary-like cells. Prior to HBV infection and compound treatment, HepaRGd cells were seeded into collagen I coated 96-well plates (Gibco, Cat# A11428-03) at 50,000 to 60,000 cells per well. Cells were allowed to recover their differentiated phenotype in 96-well plates for at least 1 week after plating prior to HBV infection.
HBV inoculum was collected from HepG2.2.15 cultured cells, a cell line that supports HBV (genotype D, strain ayw) replication and virion secretion as disclosed in Sells M A., et al., PNAS, 84(4): 1005-1009. HepG2.2.15 cells were maintained in DMEM+GlutaMAX-I (Invitrogen) containing 1× Pen/Strep (Invitrogen), 10% FBS, and 0.25 mg/ml G-418 (Invitrogen) using hyperflasks (Corning) pre-coated with collagen I (BD Biosciences). Upon reaching confluency, HepG2.2.15 culture media was replaced with DMEM+GlutaMAX-I containing 1× Pen-Strep, 2.5% FBS, and 1% DMSO for 3 days and then replaced with DMEM+GlutaMAX-I containing 1× Pen-Strep and 1% DMSO. The 1% DMSO containing media was collected every 3 to 4 days over a two week period and HBV infectious virions and subviral particles were pelleted by ultracentrifugation through a 20% sucrose cushion in a Ti 45 Beckman rotor at 45,000 rpm for 3 hours at 4° C. The pellets were resuspended in WEM at a concentration of 10^8-10^9 genome equivalents (GE) per ml, determined by real time PCR as described below using a genotype D HBV containing plasmid DNA as an internal standard. To evaluate the infectivity of the inoculum, HepaRGd cells in 96-well plates were infected in differentiation medium containing 50 to 200 GE/cell and 4% PEG 8000 (PolyEthylene Glycol 8000, Sigma, Cat# P5413-500G) for 16 hr at 37° C. At the end of the infection, HBV inoculum was removed and cells were washed 3 times with differentiation medium. Differentiation medium was replenished every 2 to 3 days and HBV replication was monitored by measuring secreted HBV DNA, hepatitis B surface (HBsAg) and/or e (HBeAg) antigens.
HBsAg was detected from 50 μL of HBV infected HepaRG supernatants using the HBsAg chemiluminescence immunoassay (CLIA) kit following instructions as recommended by the manufacturer (Autobio Diagnostics Co., Zhengzhou, China). HBV DNA was extracted from 50 μL of HBV infected HepaRGd supernatants using the MagNA Pure 96 DNA and Viral NA Small Volume Kit (Roche, Cat#05 467 497 001). […] All PCR reactions were performed using the ViiA7 Real Time PCR system (Life Technologies).
Both direct and indirect inhibitory activity of HBV replication was measured. […] Aliquots of these reagents were added to independent wells of a 96-well culture plate containing HBV infected HepaRGd cells on day 4 post infection. The final concentration of DMSO in each well was 2%. The HepaRGd cells used in the inhibition study were maintained in differentiation media containing 2% DMSO.

In the case of `CC(=O)O[C@@H]1C[C@@H](CO)O[C@H]1n1c(=O)sc2cnc(N)nc21` [glutaric acid co-crystal, 5-amino-3-(2′-O-acetyl-3′-deoxy-β-D-ribofuranosyl)-3H-thiazolo[4,5]pyrimidine-2-one], the “plasma concentration of the de-acetylated form of the Formula I compound compared to tosylate salt” value [1] is reported as “about two-fold”, the “% Area Formula I” value ([2]; 1 month, 2-8° C.) is reported as 99.02 % Area and the “% degradation” value ([2]; 1 month, 2-8° C.) is reported as −0.08%. For the same compound, the “% Area Formula I” value ([2]; 1 month, 40° C.) was 99.05 % Area, the “% degradation” value ([2]; 1 month, 40° C.) was −0.11% and the “% Area Formula I” value ([2]; 1 month, 40° C./75% r.h.) was 99.14 % Area. The “% degradation” value ([2]; 1 month, 40° C./75% r.h.) was −0.2%, the “% Area Formula I” value ([2]; 1 month, 60° C.) was 99.01 % Area and the “% degradation” value ([2]; 1 month, 60° C.) was −0.07%. For the same compound, the “% Area Formula I” value ([2]; 1 month, RT) was 98.9 % Area, the “% degradation” value ([2]; 1 month, RT) was 0.04% and the “% Area Formula I” value ([2]; 2 months, 2-8° C., reference for 2 month stability) was 99.32** % Area. The “% Area Formula I” value ([2]; 2 months, 40° C.) was 99.35 % Area, the “% degradation” value ([2]; 2 months, 40° C.) was −0.04% and the “% Area Formula I” value ([2]; 2 months, 40° C./75% r.h.) was 99.34 % Area. For the same compound, the “% degradation” value ([2]; 2 months, 40° C./75% r.h.) was −0.03%, the “% Area Formula I” value ([2]; 2 months, 60° C.) was 99.56 % Area and the “% degradation” value ([2]; 2 months, 60° C.) was −0.25%. The “% Area Formula I” value ([2]; 2 months, RT) was 99.22 % Area, the “% degradation” value ([2]; 2 months, RT) was −0.10% and the “T0 % Area Formula I” value ([2]; T0, reference for 1 month stability) was 98.94* % Area. For the same compound, the solubility ([3]; aqueous buffer, pH 4.0 buffer) was roughly 8 mg/mL, the solubility ([3]; buffer solution, aqueous buffer, pH 7.0 buffered solution) was roughly 22 mg/mL and the solubility ([3]; buffer solution, simulated gastric fluid, pH 1.0 buffered solution) was greater than 60 mg/mL. The “direct inhibition of HBV viral replication” value [4] was “did not inhibit viral replication”.
